Measurements as given in BindingDB's records for PubMed 2704370 (National Institute of Mental Health, 1989).
pKi: −log10 of the molar value.

Tests used:
[1] = molecular target: T1, Muscarinic acetylcholine receptor M1 (Rattus norvegicus, UniProt P08482)
T1 sequence (P08482 whole entry): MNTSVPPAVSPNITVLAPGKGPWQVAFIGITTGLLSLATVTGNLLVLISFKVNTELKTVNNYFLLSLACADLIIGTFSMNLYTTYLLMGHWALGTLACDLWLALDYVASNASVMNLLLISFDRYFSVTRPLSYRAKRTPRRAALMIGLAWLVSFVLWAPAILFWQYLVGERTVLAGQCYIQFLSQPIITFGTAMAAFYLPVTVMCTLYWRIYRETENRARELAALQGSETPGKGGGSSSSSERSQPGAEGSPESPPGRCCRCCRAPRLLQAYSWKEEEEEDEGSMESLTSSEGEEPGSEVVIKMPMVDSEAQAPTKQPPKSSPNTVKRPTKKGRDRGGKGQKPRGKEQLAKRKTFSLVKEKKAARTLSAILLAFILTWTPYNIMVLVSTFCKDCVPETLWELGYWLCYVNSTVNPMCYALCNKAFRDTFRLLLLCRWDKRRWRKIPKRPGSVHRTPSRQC

[2] = molecular target: T2, Muscarinic acetylcholine receptor M4 (Homo sapiens, UniProt P08173)
T2 sequence (P08173 whole entry): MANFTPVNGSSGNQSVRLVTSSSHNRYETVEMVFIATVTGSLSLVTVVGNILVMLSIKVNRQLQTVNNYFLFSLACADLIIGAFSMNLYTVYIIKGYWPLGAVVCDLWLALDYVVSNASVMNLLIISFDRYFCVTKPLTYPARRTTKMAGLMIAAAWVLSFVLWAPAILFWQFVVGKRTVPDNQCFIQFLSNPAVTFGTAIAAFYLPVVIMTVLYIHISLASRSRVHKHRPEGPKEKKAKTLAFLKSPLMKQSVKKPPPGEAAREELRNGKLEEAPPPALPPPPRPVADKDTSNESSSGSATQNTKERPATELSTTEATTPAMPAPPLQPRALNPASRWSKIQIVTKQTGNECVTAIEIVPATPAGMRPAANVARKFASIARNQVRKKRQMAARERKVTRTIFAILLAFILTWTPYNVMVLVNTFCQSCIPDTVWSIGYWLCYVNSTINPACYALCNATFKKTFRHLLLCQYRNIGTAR

[3] = molecular target: T3, Muscarinic acetylcholine receptor M5 (Homo sapiens, UniProt P08912)
T3 sequence (P08912 whole entry): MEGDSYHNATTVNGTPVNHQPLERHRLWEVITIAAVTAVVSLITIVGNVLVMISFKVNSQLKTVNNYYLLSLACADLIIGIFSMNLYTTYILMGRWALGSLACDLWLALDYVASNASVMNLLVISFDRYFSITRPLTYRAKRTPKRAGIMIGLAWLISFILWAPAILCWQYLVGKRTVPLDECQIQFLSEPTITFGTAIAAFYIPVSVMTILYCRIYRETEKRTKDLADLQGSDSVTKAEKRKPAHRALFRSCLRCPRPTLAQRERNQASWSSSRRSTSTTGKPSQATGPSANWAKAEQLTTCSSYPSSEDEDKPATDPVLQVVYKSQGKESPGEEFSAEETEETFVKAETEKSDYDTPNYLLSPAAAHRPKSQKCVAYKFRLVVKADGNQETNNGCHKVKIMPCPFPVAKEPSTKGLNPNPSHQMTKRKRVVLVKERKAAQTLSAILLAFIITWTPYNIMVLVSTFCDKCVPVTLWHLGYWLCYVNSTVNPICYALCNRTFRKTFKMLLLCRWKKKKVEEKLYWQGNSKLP

Compound | pKi [1] | pKi [2] | pKi [3]
C[N+]1(C)CCN(CC(O)(c2ccccc2)C2CCCCC2)CC1 (stereo unspecified) [CAS_115-63-9] | 8.64 | 8.26 | 8.43
COc1ccccc1CNCCCCCCNCCCCCCCCNCCCCCCNCc1ccccc1OC [METHOCTRAMINE] | – | – | 7.24
OC(CCCN1CCCCC1)(c1ccccc1)C1CCCCC1 (stereo unspecified) [CAS_113010-69-8] | 7.96 | – | 7.08
C[N+]1([SiH3])CCN(CC(O)(c2ccccc2)C2CCCCC2)CC1 (stereo unspecified) [CAS_124393-85-7] | 8.70 | 8.49 | 8.70
O[Si](CCCN1CCCCC1)(c1ccccc1)C1CCCCC1 (stereo unspecified) [HHSiD] | 7.36 | – | 7.20
